Test system: K562 cells
Experiment: Fluorescent in-cell reporter (FLICR) protein stability assay: turnover of C-terminally amidated sfGFP after nucleofection, followed by flow cytometry
Assay type: cell-based, human
Conditions: for destabilization of sfGFP carrying a primary amide on its C-terminus (sfGFP-Pep1-Ser-NH2): Fig. 1C, inhibitor concentration not given; for Amidated sfGFP degradation: Fig. 2G
Description: HEK293T cells were cultured in DMEM containing Glutamax (Thermo Fisher Scientific) and K562 cells were cultured in RPMI 1640 containing Glutamax (Thermo Fisher Scientific) under standard conditions. Growth media were further supplemented with 10% (v/v) Fetal Bovine Serum (Thermo Fisher Scientific) and 100 U/ml Penicillin-Streptomycin (Thermo Fisher Scientific). Stably transduced cells were selected using 2 µg/ml Puromycin (Thermo Fisher Scientific), 500 µg/ml Gene-ticin (Thermo Fisher Scientific) or 10 µg/ml Blasticidin (Thermo Fisher Scientific) starting two days after transduction. Induction of doxycycline-dependent vectors was performed using 500 ng/ml doxycycline (Merck) every 48 hours. Cells were treated with epoxomicin (Merck), concanamycin A (Merck) or TAK243 (MedChem Express) as indicated.
For measuring stability of recombinant or semi-synthetic proteins, 1.5- 2.0 x 10^5 cells were nucleofected with 200 pmol of protein in 20 µl cuvettes using a 4D nucleofector device (Lonza) according to the manufacturer's recommendations. Following protein delivery, cells were left to recover at 37°C for 30-45 minutes before measuring initial mean fluorescence intensity values (t0) on a Attune NxT Flow Cytometer (Thermo Fisher Scientific). Subsequent measurements were performed at indicated time points. Baseline-fluorescence values of mock nucleofected cells receiving no protein were measured and subtracted for each time point and baseline-corrected fluorescence values were normalized to t0.
The effect of each modification on protein degradation was measured in the human erythroleukemia cell line K562, which allows for efficient and uniform protein delivery via nucleofection.
Lastly, conjugates of mTagBFP2 and mCherry carrying a primary C-terminal amide were also efficiently degraded when delivered to human embryonic kidney-derived HEK293T cells (Fig.1D and Fig 1E) establishing that C-terminal amidation induces protein degradation in different amino acid-, protein- and cell contexts.
The effect of each modification on protein degradation in the human erythroleukemia cell line K562 was measured. A fluorescent in-cell reporter assay was performed, in which individual semi-synthetic proteins were introduced by electroporation into human cells and their clearance over time was followed by flow cytometry.
This implies that C-terminal amide-bearing proteins (CTAPs) are actively cleared from cells by the ubiquitin proteasome system. CTAP forms of both mCherry and mTagBFP2, but not their unmodified counterparts, were also efficiently degraded when delivered to human embryonic kidney-derived HEK293T cells, as shown in Fig. 2H (see also the explanations above relating to Fig. 1E). The presence of a C-terminal amide is therefore sufficient to induce protein degradation in different peptide-, protein- and cell contexts.

Structure (SMILES)	destabilization of sfGFP carrying a primary amide on its C-terminus (sfGFP-Pep1-Ser-NH2)	Amidated sfGFP degradation (epoxomicin (500 nM) upon sfGFP delivery)	Amidated sfGFP degradation (Folimycin (100 nM) upon sfGFP delivery)	Amidated sfGFP degradation (TAK243 (1 µM) upon sfGFP delivery)
CC[C@H](C)[C@H](NC(=O)[C@H]([C@@H](C)CC)N(C)C(C)=O)C(=O)N[C@H](C(=O)N[C@@H](CC(C)C)C(=O)[C@@]1(C)CO1)[C@@H](C)O [epoxomicin]	fully blunted	prevented	–	–
C/C=C/[C@H]1O[C@@](O)([C@@H](C)[C@H](O)[C@H](C)[C@H]2OC(=O)/C(OC)=C/C(C)=C/[C@@H](C)[C@@H](O)[C@@H](CC)[C@@H](O)[C@H](C)C/C(C)=C/C=C/[C@@H]2OC)C[C@@H](O[C@H]2C[C@@H](O)[C@H](OC(N)=O)[C@@H](C)O2)[C@@H]1C [concanamycin A]	not by inhibition of lysosomal acidification	–	not by inhibition of lysosomal acidification	–
NS(=O)(=O)OC[C@H]1C[C@@H](Nc2ccnc3cc(-c4cccc(SC(F)(F)F)c4)nn23)[C@H](O)[C@@H]1O [TAK243]	fully blunted	–	–	prevented
